Data from PubChem BioAssay AID2060509 (Molecular Pharmacology Branch, DTP, NCI, 2025).

System: 485176-168-R4-J1-PDC spheroids with HUVEC/MSC, viability
Test: Anticancer human tumor 485176-168-R4-J1-PDC patient-derived pancreatic adenocarcinoma cell line growth inhibition [GQUAD]
Conditions: for IC50: curve of first compound; for viability, T/C: stronger effect = lower value
In short: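 Viability of tumor cells grown as complex spheroids with endothelial and stromal cells, exposed to drug combinations. Top concentration at or near clinical Cmax (else 10 microM), diluted in half-log increments.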

[1] = second compound 0.0316 µM, first compound 0.0316 µM
[2] = second compound 0.0316 µM, first compound 0.1 µM
[3] = second compound 0.0316 µM, first compound 0.316 µM
[4] = second compound 0.0316 µM, first compound 1 µM
[5] = second compound 0.0316 µM, first compound 3.16 µM
[6] = second compound 0.0316 µM, first compound 10 µM
[7] = second compound 0.1 µM, first compound 0.0316 µM
[8] = second compound 0.1 µM, first compound 0.1 µM
[9] = second compound 0.1 µM, first compound 0.316 µM
[10] = second compound 0.1 µM, first compound 1 µM
[11] = second compound 0.1 µM, first compound 3.16 µM
[12] = second compound 0.1 µM, first compound 10 µM
[13] = second compound 0.316 µM, first compound 0.0316 µM
[14] = second compound 0.316 µM, first compound 0.1 µM
[15] = second compound 0.316 µM, first compound 0.316 µM
[16] = second compound 0.316 µM, first compound 1 µM
[17] = second compound 0.316 µM, first compound 3.16 µM
[18] = second compound 0.316 µM, first compound 10 µM
[19] = second compound 1 µM, first compound 0.0316 µM
[20] = second compound 1 µM, first compound 0.1 µM
[21] = second compound 1 µM, first compound 0.316 µM
[22] = second compound 1 µM, first compound 1 µM
[23] = second compound 1 µM, first compound 3.16 µM
[24] = second compound 1 µM, first compound 10 µM
[25] = second compound 3.16 µM, first compound 0.0316 µM
[26] = second compound 3.16 µM, first compound 0.1 µM
[27] = second compound 3.16 µM, first compound 0.316 µM
[28] = second compound 3.16 µM, first compound 1 µM
[29] = second compound 3.16 µM, first compound 3.16 µM
[30] = second compound 3.16 µM, first compound 10 µM
[31] = second compound 10 µM, first compound 0.0316 µM
[32] = second compound 10 µM, first compound 0.1 µM
[33] = second compound 10 µM, first compound 0.316 µM
[34] = second compound 10 µM, first compound 1 µM
[35] = second compound 10 µM, first compound 3.16 µM
[36] = second compound 10 µM, first compound 10 µM
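Note: spheroids exposed to compounds for seven days before readout.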
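Throughout, for viability, T/C: percent viability relative to DMSO vehicle control wells as 100%.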

## C#Cc1c(F)ccc2cc(O)cc(-c3ncc4c(N5CC6CCC(C5)N6)nc(OCC56CCCN5CC(F)C6)nc4c3F)c12 (stereo unspecified) + Cc1cnc(CNC(=O)c2c(=O)c3ccc(N4CCCN(C)CC4)nc3n3c2sc2ccccc23)cn1
Second compound 0.0316 µM
  IC50: > 10000 nM
Second compound 0.1 µM
  IC50: > 10000 nM
Second compound 0.316 µM
  IC50: > 10000 nM
Second compound 1 µM
  IC50: < 31.6 nM
Second compound 3.16 µM
  IC50: < 31.6 nM
Second compound 10 µM
  IC50: < 31.6 nM
[1]
  viability, T/C: 97%
[2]
  viability, T/C: 89.9%
[3]
  viability, T/C: 97.7%
[4]
  viability, T/C: 81%
[5]
  viability, T/C: 91.9%
[6]
  viability, T/C: 87.8%
[7]
  viability, T/C: 78.4%
[8]
  viability, T/C: 80%
[9]
  viability, T/C: 68.4%
[10]
  viability, T/C: 72.3%
[11]
  viability, T/C: 72.8%
[12]
  viability, T/C: 76.3%
[13]
  viability, T/C: 59.3%
[14]
  viability, T/C: 60%
[15]
  viability, T/C: 62.3%
[16]
  viability, T/C: 61.6%
[17]
  viability, T/C: 63.3%
[18]
  viability, T/C: 50.9%
[19]
  viability, T/C: 45.2%
[20]
  viability, T/C: 50.1%
[21]
  viability, T/C: 48.6%
[22]
  viability, T/C: 50.3%
[23]
  viability, T/C: 45.7%
[24]
  viability, T/C: 50.5%
[25]
  viability, T/C: 44%
[26]
  viability, T/C: 44.7%
[27]
  viability, T/C: 44.4%
[28]
  viability, T/C: 38.1%
[29]
  viability, T/C: 48.7%
[30]
  viability, T/C: 44.6%
[31]
  viability, T/C: 40.5%
[32]
  viability, T/C: 40.4%
[33]
  viability, T/C: 36.4%
[34]
  viability, T/C: 35.1%
[35]
  viability, T/C: 37.5%
[36]
  viability, T/C: 37.4%

## C=CCn1c(=O)c2cnc(Nc3ccc(N4CCN(C)CC4)cc3)nc2n1-c1cccc(C(C)(C)O)n1 + Cc1cnc(CNC(=O)c2c(=O)c3ccc(N4CCCN(C)CC4)nc3n3c2sc2ccccc23)cn1
Second compound 0.0316 µM
  IC50: 233 nM
Second compound 0.1 µM
  IC50: 165 nM
Second compound 0.316 µM
  IC50: 123 nM
Second compound 1 µM
  IC50: 36.5 nM
Second compound 3.16 µM
  IC50: < 31.6 nM
Second compound 10 µM
  IC50: < 31.6 nM
[1]
  viability, T/C: 81.7%
[2]
  viability, T/C: 64.8%
[3]
  viability, T/C: 47.2%
[4]
  viability, T/C: 11.5%
[5]
  viability, T/C: 7.79%
[6]
  viability, T/C: 3.94%
[7]
  viability, T/C: 69.3%
[8]
  viability, T/C: 70.4%
[9]
  viability, T/C: 24.1%
[10]
  viability, T/C: 10.6%
[11]
  viability, T/C: 6.45%
[12]
  viability, T/C: 3.77%
[13]
  viability, T/C: 64%
[14]
  viability, T/C: 55.9%
[15]
  viability, T/C: 25%
[16]
  viability, T/C: 9.59%
[17]
  viability, T/C: 6.42%
[18]
  viability, T/C: 3.31%
[19]
  viability, T/C: 52%
[20]
  viability, T/C: 36.4%
[21]
  viability, T/C: 22.1%
[22]
  viability, T/C: 10.2%
[23]
  viability, T/C: 5.94%
[24]
  viability, T/C: 4.18%
[25]
  viability, T/C: 47.6%
[26]
  viability, T/C: 40.1%
[27]
  viability, T/C: 18.2%
[28]
  viability, T/C: 9.87%
[29]
  viability, T/C: 4.56%
[30]
  viability, T/C: 5.42%
[31]
  viability, T/C: 34.4%
[32]
  viability, T/C: 37.5%
[33]
  viability, T/C: 24.6%
[34]
  viability, T/C: 10.6%
[35]
  viability, T/C: 0.49%
[36]
  viability, T/C: 0.25%

## CC(C)(O)C1CCC(Nc2ccc3ncc(-c4cccc(C(F)(F)F)c4)n3n2)CC1 (stereo unspecified) + Cc1cnc(CNC(=O)c2c(=O)c3ccc(N4CCCN(C)CC4)nc3n3c2sc2ccccc23)cn1
Second compound 0.0316 µM
  IC50: > 10000 nM
Second compound 0.1 µM
  IC50: 4380 nM
Second compound 0.316 µM
  IC50: 1370 nM
Second compound 1 µM
  IC50: 371 nM
Second compound 3.16 µM
  IC50: 39.9 nM
Second compound 10 µM
  IC50: < 31.6 nM
[1]
  viability, T/C: 94.1%
[2]
  viability, T/C: 81.3%
[3]
  viability, T/C: 97.5%
[4]
  viability, T/C: 67%
[5]
  viability, T/C: 49.7%
[6]
  viability, T/C: 51.6%
[7]
  viability, T/C: 64.5%
[8]
  viability, T/C: 71.7%
[9]
  viability, T/C: 57.6%
[10]
  viability, T/C: 65.8%
[11]
  viability, T/C: 47.2%
[12]
  viability, T/C: 44.8%
[13]
  viability, T/C: 57.3%
[14]
  viability, T/C: 55.1%
[15]
  viability, T/C: 58.9%
[16]
  viability, T/C: 54.1%
[17]
  viability, T/C: 38.4%
[18]
  viability, T/C: 39.7%
[19]
  viability, T/C: 49.2%
[20]
  viability, T/C: 48.9%
[21]
  viability, T/C: 54%
[22]
  viability, T/C: 45.5%
[23]
  viability, T/C: 31.4%
[24]
  viability, T/C: 36.2%
[25]
  viability, T/C: 52.5%
[26]
  viability, T/C: 45%
[27]
  viability, T/C: 43.3%
[28]
  viability, T/C: 42.8%
[29]
  viability, T/C: 25.2%
[30]
  viability, T/C: 15.8%
[31]
  viability, T/C: 43.4%
[32]
  viability, T/C: 38.8%
[33]
  viability, T/C: 41.6%
[34]
  viability, T/C: 37.9%
[35]
  viability, T/C: 0.55%
[36]
  viability, T/C: 0.23%
